{"source": "paper PMC7307906", "about": "“Macrocyclic Modalities Combining Peptide Epitopes and Natural Product Fragments” (Journal of the American Chemical Society, 2020)", "molecules": {"B1": {"name": "PepNat D12-minor (peptide)", "chain": "[NMeL]DINNNKG-NH2", "modifications": "bridge (positions not given here) via N‑methyl fused di‑pyrrolidine (I); reading uncertain; also: macrocycle via N-methyl fused di-pyrrolidine (I), minor diastereomer"}, "B2": {"name": "macrocycle 27 (peptide)", "chain": "[NMeF]DINNNK", "modifications": "linker (positions not given here) via phenylmethanamine linker (IX); reading uncertain; also: cyclized via phenylmethanamine linker (IX), attachment points not given here"}, "B3": {"name": "PepNat D13-major (peptide)", "chain": "[NMeV]DINNNKG-NH2", "modifications": "bridge (positions not given here) via N‑methyl fused di‑pyrrolidine (I); reading uncertain; also: macrocycle via N-methyl fused di-pyrrolidine (I)"}, "B4": {"name": "PepNat D4-major (peptide)", "chain": "[NMeF]DINNNKG-NH2", "modifications": "bridge (positions not given here) via pyrrolidine (IV); reading uncertain; also: macrocycle via pyrrolidine (IV)"}, "B5": {"name": "PepNat D2-major (peptide)", "chain": "[NMeF]DINNNKG-NH2", "modifications": "bridge (positions not given here) via N‑phenyl fused di‑pyrrolidine (II); reading uncertain; also: macrocycle via N-phenyl fused di-pyrrolidine (II)"}, "B6": {"name": "PepNat D7-major (peptide)", "chain": "[NMeF]DINNNKG-NH2", "modifications": "bridge (positions not given here) via pyrrolidinyl‑spirobarbiturate (VII); reading uncertain; also: macrocycle via pyrrolidinyl-spirobarbiturate (VII)"}, "B7": {"name": "PepNat D3-major (peptide)", "chain": "[NMeF]DINNNKG-NH2", "modifications": "bridge (positions not given here) via NP‑inspired fragment III; reading uncertain; also: macrocycle via NP-inspired fragment III"}, "B8": {"name": "PepNat D1-major (peptide)", "chain": "[NMeF]DINNNKG-NH2", "modifications": "bridge (positions not given here) via N‑methyl fused di‑pyrrolidine (I); reading uncertain; also: macrocycle via N-methyl fused di-pyrrolidine (I)"}, "B9": {"name": "PepNat D13-minor (peptide)", "chain": "[NMeV]DINNNKG-NH2", "modifications": "bridge (positions not given here) via N‑methyl fused di‑pyrrolidine (I); reading uncertain; also: macrocycle via N-methyl fused di-pyrrolidine (I), minor diastereomer"}, "B10": {"name": "PepNat D12-major (peptide)", "chain": "[NMeL]DINNNKG-NH2", "modifications": "bridge (positions not given here) via N‑methyl fused di‑pyrrolidine (I); reading uncertain; also: macrocycle via N-methyl fused di-pyrrolidine (I)"}, "B11": {"name": "cyclic peptidomimetic 26 (peptide)", "chain": "DINNN", "modifications": "bridge (positions not given here) via ortho ether aromatic unit (VIII); reading uncertain; also: cyclized via ortho ether aromatic unit (VIII), attachment points not given here"}}, "key": {"human MC3R [1]": {"molecular_target": "T1, human MC3R (Homo sapiens, UniProt P41968)", "T1 construct": "expressed in transfected cells", "T1 sequence (P41968 whole entry)": "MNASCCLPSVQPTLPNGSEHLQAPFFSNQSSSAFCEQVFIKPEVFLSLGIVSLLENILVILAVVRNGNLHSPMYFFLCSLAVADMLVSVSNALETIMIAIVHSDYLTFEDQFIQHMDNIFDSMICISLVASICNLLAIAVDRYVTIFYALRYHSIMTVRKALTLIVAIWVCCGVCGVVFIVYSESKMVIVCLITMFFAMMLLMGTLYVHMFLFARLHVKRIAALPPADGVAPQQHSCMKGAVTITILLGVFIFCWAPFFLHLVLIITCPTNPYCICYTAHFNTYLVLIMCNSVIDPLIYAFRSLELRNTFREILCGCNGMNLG", "test": "cAMP assay (LANCE) in T-Rex-293 cells expressing MC3R", "format": "cell-based", "conditions": "cAMP assay; mean (± SEM) of at least three independent experiments; read-out: EC50 hMC3R cAMP"}, "human MC4R [2]": {"molecular_target": "T2, human MC4R (Homo sapiens, UniProt P32245)", "T2 construct": "expressed in transfected cells", "T2 sequence (P32245 whole entry)": "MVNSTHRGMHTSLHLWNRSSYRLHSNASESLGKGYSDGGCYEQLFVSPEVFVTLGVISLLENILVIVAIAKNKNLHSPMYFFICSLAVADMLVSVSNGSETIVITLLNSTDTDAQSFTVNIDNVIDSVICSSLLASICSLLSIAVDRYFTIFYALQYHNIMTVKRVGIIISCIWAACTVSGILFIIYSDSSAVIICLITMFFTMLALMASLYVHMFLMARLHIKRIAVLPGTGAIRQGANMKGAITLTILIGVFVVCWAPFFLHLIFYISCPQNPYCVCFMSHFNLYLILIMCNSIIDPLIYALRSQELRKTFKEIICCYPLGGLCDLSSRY", "test": "Melanocortin receptor radioligand binding (SPA, [125I]-NDP-α-MSH displacement), MC4R", "conditions": "competitive binding, mean (± SEM) of at least three independent experiments, read-out: IC50 hMC4R binding"}, "human MC5R": {"molecular_target": "T3, human MC5R (Homo sapiens, UniProt P33032)", "T3 construct": "expressed in transfected cells; host or cells: HEK293-6E suspension cells, transient expression; membranes", "T3 sequence (P33032 whole entry)": "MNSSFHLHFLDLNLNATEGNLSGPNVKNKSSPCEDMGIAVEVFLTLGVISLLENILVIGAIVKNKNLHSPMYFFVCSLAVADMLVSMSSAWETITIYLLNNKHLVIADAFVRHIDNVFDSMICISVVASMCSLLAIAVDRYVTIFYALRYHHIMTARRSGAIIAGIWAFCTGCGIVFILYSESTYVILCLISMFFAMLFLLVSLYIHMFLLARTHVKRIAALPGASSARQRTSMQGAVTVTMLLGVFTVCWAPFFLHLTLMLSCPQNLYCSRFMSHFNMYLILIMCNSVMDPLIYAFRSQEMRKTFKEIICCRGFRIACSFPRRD", "test": "Melanocortin receptor radioligand binding (SPA, [125I]-NDP-α-MSH displacement), MC5R", "conditions": "competitive binding, [125I]-NDP-α-MSH; mean (± SEM) of at least three independent experiments; read-out: IC50 hMC5R binding"}, "human MC1R [3]": {"molecular_target": "T4, human MC1R (Homo sapiens, UniProt Q01726)", "T4 construct": "expressed in transfected cells", "T4 sequence (Q01726 whole entry)": "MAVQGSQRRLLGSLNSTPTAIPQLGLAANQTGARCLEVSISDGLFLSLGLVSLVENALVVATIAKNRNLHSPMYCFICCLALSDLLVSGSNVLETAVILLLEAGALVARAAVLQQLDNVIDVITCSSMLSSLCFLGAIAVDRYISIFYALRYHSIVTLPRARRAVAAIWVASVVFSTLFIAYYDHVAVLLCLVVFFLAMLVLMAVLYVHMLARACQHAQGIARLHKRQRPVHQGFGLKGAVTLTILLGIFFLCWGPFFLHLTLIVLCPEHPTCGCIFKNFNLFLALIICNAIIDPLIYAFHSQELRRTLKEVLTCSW", "test": "Melanocortin receptor radioligand binding (SPA, [125I]-NDP-α-MSH displacement), MC1R", "conditions": "competitive binding, mean (± SEM) of at least three independent experiments, read-out: IC50 hMC1R binding"}, "human MC3R [4]": {"molecular_target": "T1, human MC3R", "test": "Melanocortin receptor radioligand binding (SPA, [125I]-NDP-α-MSH displacement), MC3R", "conditions": "competitive binding, mean (± SEM) of at least three independent experiments, read-out: IC50 hMC3R binding"}, "human MC1R [5]": {"molecular_target": "T4, human MC1R", "test": "cAMP assay (LANCE) in T-Rex-293 cells expressing MC1R", "format": "cell-based", "conditions": "for Emax: T-REx-293, read-out: % Effect hMC1R cAMP; for EC50: mean (± SEM) of at least three independent experiments, read-out: EC50 hMC1R cAMP"}, "human MC4R [6]": {"molecular_target": "T2, human MC4R", "test": "cAMP assay (LANCE) in T-Rex-293 cells expressing MC4R", "format": "cell-based", "conditions": "cAMP assay; mean (± SEM) of at least three independent experiments; read-out: EC50 hMC4R cAMP"}, "SPSB2": {"molecular_target": "T5, SPSB2 (Homo sapiens, UniProt Q99619)", "T5 chain": "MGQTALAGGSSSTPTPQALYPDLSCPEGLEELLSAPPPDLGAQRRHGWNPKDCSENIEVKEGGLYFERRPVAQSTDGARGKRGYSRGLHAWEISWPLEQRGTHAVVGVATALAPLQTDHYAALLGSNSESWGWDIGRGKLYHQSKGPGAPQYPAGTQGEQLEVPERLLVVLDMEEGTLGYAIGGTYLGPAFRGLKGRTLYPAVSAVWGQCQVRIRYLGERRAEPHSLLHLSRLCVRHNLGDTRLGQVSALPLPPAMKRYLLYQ", "test": "SPR"}}, "note": "Where a SMILES comes first, the peptide text is derived from it. Bridges are numbered along the chain shown (N, C = ends). Where no end group is shown, it is not given here. [ ]: non-standard residue; d: D form. pyrrolidinyl‑spirobarbiturate (VII) = not defined here; N‑phenyl fused di‑pyrrolidine (II) = not defined here; N‑methyl fused di‑pyrrolidine (I) = not defined here; ortho ether aromatic unit (VIII) = not defined here; phenylmethanamine linker (IX) = not defined here; NP‑inspired fragment III = not defined here; pyrrolidine (IV) = not defined here; NMeF = CN[C@@H](Cc1ccccc1)C(=O)O; NMeL = CN[C@@H](CC(C)C)C(=O)O; NMeV = CN[C@H](C(=O)O)C(C)C", "data": [{"molecule": "CN1C(=O)[C@H]2N[C@@H](c3ccc(cc3)C(=O)NCCCC[C@@H](C(N)=O)NC(=O)[C@H](Cc3ccccc3)NC(=O)[C@H](Cc3ccccc3)NC(=O)[C@H](CCCNC(=N)N)NC(=O)[C@@H]1Cc1ccccc1)[C@H]1C(=O)N(c3ccccc3)C(=O)[C@H]12", "note": "[N3-major*, [II-FRFFK ]]", "values": [{"measurement": "EC50", "setting": "human MC3R [1]", "value": "> 100000", "unit": "nM"}, {"measurement": "IC50", "setting": "human MC4R [2]", "value": "> 100000", "unit": "nM"}, {"measurement": "IC50", "setting": "human MC5R", "value": "74000 ± 4000", "unit": "nM"}, {"measurement": "IC50", "setting": "human MC1R [3]", "value": "> 100000", "unit": "nM"}, {"measurement": "IC50", "setting": "human MC3R [4]", "value": "> 100000", "unit": "nM"}, {"measurement": "Emax", "setting": "human MC1R [5]", "value": 40, "unit": "%"}, {"measurement": "EC50", "setting": "human MC1R [5]; cAMP assay", "value": "22000 ± 3000", "unit": "nM"}, {"measurement": "EC50", "setting": "human MC4R [6]", "value": "> 100000", "unit": "nM"}]}, {"molecule": "CN1C(=O)[C@@H]2[C@H](C1=O)[C@H]1N[C@@H]2C(=O)N(C)[C@@H](Cc2ccccc2)C(=O)N[C@@H](CCCNC(=N)N)C(=O)N[C@H](Cc2ccccc2)C(=O)N[C@H](Cc2ccccc2)C(=O)N[C@H](C(=O)N[C@@H](Cc2ccc(O)cc2)C(N)=O)CCCCNC(=O)c2ccc1cc2", "note": "[O1-minor, [I-FRffK ]Y]", "values": [{"measurement": "EC50", "setting": "human MC3R [1]", "value": "> 10000", "unit": "nM"}, {"measurement": "IC50", "setting": "human MC4R [2]", "value": "> 10000", "unit": "nM"}, {"measurement": "IC50", "setting": "human MC5R", "value": "> 10000", "unit": "nM"}, {"measurement": "IC50", "setting": "human MC1R [3]", "value": "> 10000", "unit": "nM"}, {"measurement": "IC50", "setting": "human MC3R [4]", "value": "> 10000", "unit": "nM"}, {"measurement": "% Effect hMC1R cAMP at 10 µM", "setting": "human MC1R [5]; % effect at 10 µM, compounds not reaching an upper plateau (#)", "value": 21, "unit": "%"}, {"measurement": "EC50", "setting": "human MC1R [5]; cAMP assay", "value": "> 10000", "unit": "nM"}, {"measurement": "EC50", "setting": "human MC4R [6]", "value": "> 10000", "unit": "nM"}]}, {"molecule": "C[C@@H]1NC(=O)[C@H](CC(N)=O)NC(=O)[C@@H](Cc2ccccc2)NC(=O)[C@@H](Cc2ccccc2)NC(=O)[C@H](CCCNC(=N)N)NC(=O)[C@@H](NC(=O)[C@@H](N)Cc2ccc(O)cc2)CSSC[C@@H](C(=O)N[C@@H](Cc2ccc(O)cc2)C(N)=O)NC(=O)[C@H](Cc2ccccc2)NC1=O", "note": "[compound 29, Y[CRffNAFC]Y, reference compound] (HELM PEPTIDE1{Y.C.R.[dF].[dF].N.A.F.C.Y.[am]}$PEPTIDE1,PEPTIDE1,2:R3-9:R3$$$V2.0)", "values": [{"measurement": "EC50", "setting": "human MC3R [1]", "value": "> 100000", "unit": "nM"}, {"measurement": "IC50", "setting": "human MC4R [2]", "value": "7100 ± 500", "unit": "nM"}, {"measurement": "IC50", "setting": "human MC5R", "value": "2500 ± 300", "unit": "nM"}, {"measurement": "IC50", "setting": "human MC1R [3]", "value": "2500 ± 500", "unit": "nM"}, {"measurement": "IC50", "setting": "human MC3R [4]", "value": "9500 ± 900", "unit": "nM"}, {"measurement": "Emax", "setting": "human MC1R [5]", "value": 84, "unit": "%"}, {"measurement": "agonistic activity at MC1R (in words)", "setting": "human MC1R [5]; cAMP assay, hMC1R", "value": "selective and almost full agonistic activity"}, {"measurement": "EC50", "setting": "human MC4R [6]", "value": "> 100000", "unit": "nM"}]}, {"molecule": "VDINNNKG (macrocycle via N-phenyl fused di-pyrrolidine (II), N-Me-Val)", "note": "[PepNat D18-major]", "values": [{"measurement": "Kd", "setting": "SPSB2", "value": 2.2, "unit": "nM"}]}, {"molecule": "B1", "values": [{"measurement": "Kd", "setting": "SPSB2", "value": 127, "unit": "nM"}]}, {"molecule": "B2", "values": [{"measurement": "Kd", "setting": "SPSB2", "value": 87, "unit": "nM"}]}, {"molecule": "Ac-DINNN", "note": "[iNOS peptide 23]", "values": [{"measurement": "Kd", "setting": "SPSB2", "value": 237, "unit": "nM"}]}, {"molecule": "B3", "values": [{"measurement": "Kd", "setting": "SPSB2", "value": 15, "unit": "nM"}]}, {"molecule": "CVDINNNC (disulfide 1-8 (inferred))", "note": "[cyclic peptide 24]", "values": [{"measurement": "Kd", "setting": "SPSB2", "value": 16, "unit": "nM"}]}, {"molecule": "B4", "values": [{"measurement": "Kd", "setting": "SPSB2", "value": 18, "unit": "nM"}]}, {"molecule": "B5", "values": [{"measurement": "Kd", "setting": "SPSB2", "value": 231, "unit": "nM"}]}, {"molecule": "B6", "values": [{"measurement": "Kd", "setting": "SPSB2", "value": 3.8, "unit": "nM"}]}, {"molecule": "VDINNNKG (macrocycle via N-phenyl fused di-pyrrolidine (II) minor diastereomer, N-Me-Val)", "note": "[PepNat D18-minor]", "values": [{"measurement": "Kd", "setting": "SPSB2", "value": 139, "unit": "nM"}]}, {"molecule": "B7", "values": [{"measurement": "Kd", "setting": "SPSB2", "value": 309, "unit": "nM"}]}, {"molecule": "Ac-KEEKDINNNVKKT", "note": "[iNOS peptide 22]", "values": [{"measurement": "Kd", "setting": "SPSB2", "value": 7.1, "unit": "nM"}]}, {"molecule": "B8", "values": [{"measurement": "Kd", "setting": "SPSB2", "value": 33, "unit": "nM"}]}, {"molecule": "B9", "values": [{"measurement": "Kd", "setting": "SPSB2", "value": 78, "unit": "nM"}]}, {"molecule": "B10", "values": [{"measurement": "Kd", "setting": "SPSB2", "value": 10, "unit": "nM"}]}, {"molecule": "B11", "values": [{"measurement": "Kd", "setting": "SPSB2", "value": 175, "unit": "nM"}]}]}
